Test results reported in patent US8586719B2, “Triterpenes for modulating gene expression and cell membrane, and as antiprotozoal agents” (Pacific Arrow Limited, priority 2005, dated 2013).

Assays:
angiopoietin-like 1 = assay: Microarray gene expression in ES2 cells: angiopoietin-like 1; assay type: cell-based, human; settings: micro array
Text: (§1) The composition comprises bioactive compounds from natural plants or synthesis. The majority of the plants are from the Sapindaceae family, which has 140-150 genera with 1400-2000 species. The program is based on our purification methods and biological assays including the MTT assay See International Application No. PCT/US05/31900, filed Sep. 7, 2005, U.S. Ser. No. 11/289,142, filed Nov. 28, 2005, and U.S. Ser. No. 11/131,551, filed May 17, 2005, and PCT/US2008/002086, 1188-ALA-PCT, filed Feb. 15, 2008, the contents of which are incorporated herein by reference. The details of Analysis of gene expression of ES2 cells after Y-treatment by Microarray, Data Analysis Methods and Western blot in PCT/US2008/002086, 1188-ALA-PCT, filed Feb. 15, 2008, the contents of which are incorporated herein by reference
Angiogenesis is a process involving the growth of new blood vessels. It is a normal process in growth and development. However, this is also a fundamental step in the transition of tumors from a dormant state to a malignant state. The angiopoietins are protein growth factors that modulate angiogenesis. […]

Fibronectin [1] = assay: Fibronectin secretion, brain glioblastoma T98G cells; assay type: cell-based, human; settings: Homo sapiens, T98G
Procedure: (§2) Reduction of Fibronectin secretion from ES2 cells after xanifolia-Y treatment. • (Results of F1, F3, F4, F5, F7, F8, F11, F12A, F15, F16, F17) Data in PCT/US2008/002086, 1188-ALA-PCT, filed Feb. 15, 2008 are incorporated herein by reference • (F11) For lung carcinoma cells (H460), at concentration of 20 ug/ml, there are inhibitions of Fibronectin secretion ranged from 20-60%. • (F12A) For bladder carcinoma cells (HTB-9), Xanifolia-Y (10 ug/ml) inhibits 50% of Fibronectin secretion. • (F15) In liver HepG2 cells. 10 ug/ml of xanifolia-Y inhibits 42% secretion of Fibronectin. • (F16) Incubation of brain glioblastoma T98G cells with 10 ug/ml of xanifolia-Y inhibits 27% Fibronectin secretion and with 20 ug/ml Y inhibits 74% Fibronectin secretion. • (F17) For skin SK-MeI-5 cells, the inhibition is 40-57% with 20 ug/ml of Xanifolia-Y.

FN1 (fibronectin 1) = assay: Gene expression by Real-time PCR: FN1; assay type: cell-based; settings: control = 100
Text: (§3) Determination of gene expression by Real-time PCR method (Brilliant QPCR, Agilent Technologies): The real-time polymerase chain reactions further confirm the results obtained from micro array analysis. The Real-time PCR results (shown below) confirmed that Compound Y3 and YM increase the expression of the genes: ANGPT2, DDIT3, LIF and NFKB1Z

ES2 cells = assay: Microarray experiments: lists of modulated genes; assay type: cell-based, human
Text: as §1

[2] = test system: COL1A1 (collagen type 1 alpha 1); assay: Gene expression by Real-time PCR: COL1A1; assay type: cell-based; settings: control = 100
LAMA4 (laminin alpha 4) = assay: Gene expression by Real-time PCR: LAMA4; assay type: cell-based; settings: control = 100
Text: as §3

[3] = test system: insulin-like growth factor binding protein 4 (IGFBP4); assay: Microarray gene expression in ES2 cells: IGFBP4; assay type: cell-based, human; settings: probe set 201508_at
Text: as §1

[4] = test system: insulin-like growth factor binding protein 6 (IGFBP6); assay: Microarray gene expression in ES2 cells: IGFBP6; assay type: cell-based, human; settings: probe set 203851_at
Text: as §1

ITGAV (integrin alpha V) = assay: Gene expression by Real-time PCR: ITGAV; assay type: cell-based; settings: control = 100
Text: as §3

[5] = test system: protein phosphatase 1, regulatory (inhibitor) subunit 15A (PPP1R15A); assay: Microarray gene expression in ES2 cells: PPP1R15A; assay type: cell-based, human
Text: as §1

Glypican 6 (GPC6) = assay: Microarray gene expression in ES2 cells: Glypican; assay type: cell-based, human
Text: as §1

[6] = test system: LIF (Leukemia inhibitory factor); assay: Gene expression by Real-time PCR: LIF; assay type: cell-based; settings: DMSO control = 100
Text: as §3

TNC (Tenascin C) = assay: Gene expression by Real-time PCR: TNC; assay type: cell-based; settings: control = 100
Text: as §3

Fibronectin [7] = assay: Fibronectin secretion, bladder carcinoma cells (HTB-9); assay type: cell-based, human; settings: Homo sapiens; Bladder HTB-9; 10 ug/ml (table: label suffix -10)
Procedure: as §2

[8] = test system: NFKB1Z (nuclear factor of kappa light polypeptide gene enhancer in B-cells inhibitor, zeta); assay: Gene expression by Real-time PCR: NFKB1Z; assay type: cell-based; settings: DMSO control = 100
Text: as §3

[9] = test system: insulin-like growth factor binding protein 3 (IGFBP3); assay: Microarray gene expression in ES2 cells: IGFBP3; assay type: cell-based, human
Text: as §1

In the case of `C/C=C(/C)C(=O)O[C@H]1[C@H](OC(=O)/C(C)=C\C)[C@@]2(CO)C(CC1(C)C)C1=CCC3[C@@]4(C)CC[C@H](O[C@@H]5OC(C(=O)O)[C@@H](O)[C@@H](O[C@@H]6O[C@@H](CO)[C@@H](O)C6O)C5O[C@@H]5OC(CO)[C@H](O)[C@@H](O)C5O)C(C)(C)C4CC[C@@]3(C)[C@]1(C)[C@@H](O)[C@H]2O` (stereo partly drawn) [Y, 3-O-[β-D-galactopyranosyl(1→2)]-α-L-arabinofuranosy (1→3)-β-D-glucuronopyranosyl-21,22-O-diangeloyl-3β, 15α, 16α, 21β, 22α, 28-hexahydroxyolean-12-ene], the “gene expression of angiopoietin-like 1” value (angiopoietin-like 1) is reported as “inhibit”, the inhibition at 10 µg/mL (Fibronectin [1]; read-out: % inhibition of Fibronectin secretion) is reported as 27% and the inhibition at 20 µg/mL (Fibronectin [1]; read-out: inhibition of Fibronectin secretion) is reported as 74%. For the same compound, the “FN1 expression, % of control” value (FN1 (fibronectin 1)) was 44.1 % of control, the “genes expression of the adhesion-related genes listed in b182 (FN1, ITGAV, LAMA4 ...)” value (ES2 cells) was “inhibited” and the “gene expression of the genes listed in b176” value (ES2 cells; Microarray) was “modulates”. For the same compound, the “gene expression of the genes listed in b178” value (ES2 cells; Microarray) was “inhibiting”, the “gene expression of the genes listed in b180” value (ES2 cells; Microarray) was “stimulates” and the “COL1A1 expression, % of control” value [2] was 49.9 % of control. The “LAMA4 expression, % of control” value (LAMA4 (laminin alpha 4)) was 53.6 % of control, the “IGFBP4 expression, treated/D (DMSO control)” value [3] was −1.7 and the “IGFBP6 expression, treated/D (DMSO control)” value [4] was −1.3. The “ITGAV expression, % of control” value (ITGAV (integrin alpha V)) was 63.8 % of control, the “PPP1R15A expression (given as Y/D, YM/D)” value ([5]; 37028_at) was 2.4 and the “PPP1R15A expression (given as Y/D, YM/D)” value ([5]; 202014_at) was 2.6. For the same compound, the “GPC6 expression, treated/D (DMSO control)” value (Glypican 6 (GPC6); probe set 227059_at) was −2.2, the “GPC6 expression, treated/D (DMSO control)” value (Glypican 6 (GPC6); probe set 243865_x_at) was −2.7 and the “LIF expression, % of control” value [6] was 163 % of control. For the same compound, the “TNC expression, % of control” value (TNC (Tenascin C)) was 41.1 % of control, the inhibition at 10 µg/mL (Fibronectin [7]) was 50% and the “NFKB1Z expression, % of control” value [8] was 142.9 % of control. For the same compound, the “IGFBP3 expression, treated/D (DMSO control)” value ([9]; probe set 210095_s_at) was −4.0 and the “IGFBP3 expression, treated/D (DMSO control)” value ([9]; probe set 212143_s_at) was −3.7.
